Molecular target: T1, Pdr5p (Saccharomyces cerevisiae, UniProt P33302)
T1 construct: gene PDR5; Pdr5p-enriched plasma membranes from strain AD124567
Test: ATPase activity (Pi release) in Pdr5p-enriched plasma membranes, Pdr5p-null membranes subtracted
Assay type: biochemical

T1 sequence (P33302 whole entry): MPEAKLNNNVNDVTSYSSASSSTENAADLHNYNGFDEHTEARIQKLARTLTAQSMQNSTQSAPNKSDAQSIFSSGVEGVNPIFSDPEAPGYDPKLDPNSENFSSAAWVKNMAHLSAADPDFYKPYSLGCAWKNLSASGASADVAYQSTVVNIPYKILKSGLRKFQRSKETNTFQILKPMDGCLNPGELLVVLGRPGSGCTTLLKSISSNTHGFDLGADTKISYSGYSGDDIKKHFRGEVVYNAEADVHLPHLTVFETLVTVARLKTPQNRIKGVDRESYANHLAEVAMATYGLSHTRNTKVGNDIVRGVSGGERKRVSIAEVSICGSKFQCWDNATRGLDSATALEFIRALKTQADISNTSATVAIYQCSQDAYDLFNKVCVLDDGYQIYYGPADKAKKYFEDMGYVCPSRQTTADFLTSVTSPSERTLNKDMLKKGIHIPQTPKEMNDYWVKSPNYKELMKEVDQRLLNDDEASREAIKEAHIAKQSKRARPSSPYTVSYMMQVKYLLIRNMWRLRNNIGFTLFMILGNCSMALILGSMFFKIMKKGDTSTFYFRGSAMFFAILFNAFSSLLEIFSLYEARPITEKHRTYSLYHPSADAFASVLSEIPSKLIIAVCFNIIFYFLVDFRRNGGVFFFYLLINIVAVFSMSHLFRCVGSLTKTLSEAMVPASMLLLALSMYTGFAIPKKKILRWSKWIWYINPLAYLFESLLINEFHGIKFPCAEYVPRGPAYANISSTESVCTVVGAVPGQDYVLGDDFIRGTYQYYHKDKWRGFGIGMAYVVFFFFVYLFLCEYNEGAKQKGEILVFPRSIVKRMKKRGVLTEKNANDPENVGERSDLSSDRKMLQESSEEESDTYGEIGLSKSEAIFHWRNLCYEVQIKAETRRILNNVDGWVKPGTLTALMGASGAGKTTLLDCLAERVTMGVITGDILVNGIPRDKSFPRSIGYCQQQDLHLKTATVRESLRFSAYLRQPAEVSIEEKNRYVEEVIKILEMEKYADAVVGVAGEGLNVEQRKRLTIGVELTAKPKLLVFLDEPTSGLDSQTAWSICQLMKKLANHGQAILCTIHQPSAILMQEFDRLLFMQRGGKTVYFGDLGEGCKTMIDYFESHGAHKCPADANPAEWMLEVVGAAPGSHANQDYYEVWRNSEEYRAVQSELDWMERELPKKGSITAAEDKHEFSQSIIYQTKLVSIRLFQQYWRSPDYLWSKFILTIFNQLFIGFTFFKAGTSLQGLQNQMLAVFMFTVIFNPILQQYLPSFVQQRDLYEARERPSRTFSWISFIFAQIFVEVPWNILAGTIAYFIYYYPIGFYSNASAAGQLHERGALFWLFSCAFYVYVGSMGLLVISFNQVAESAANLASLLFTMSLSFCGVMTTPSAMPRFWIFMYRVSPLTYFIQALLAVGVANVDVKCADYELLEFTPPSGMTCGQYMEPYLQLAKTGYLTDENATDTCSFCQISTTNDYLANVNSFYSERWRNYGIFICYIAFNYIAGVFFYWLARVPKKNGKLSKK

| Compound | IC50 [µM] |
| --- | --- |
| CCCC[Te]CCCCNC(=O)c1ccccc1 [compound 3] | 1.74 ± 0.91 |
| CCCC[Te]CCCCCNC(=O)c1ccccc1 [compound 5] | 1.48 ± 0.32 |
| CCCC[Te]CCCNC(=O)OC(C)(C)C [compound 1] | 1.14 ± 0.21 |
| CCCC[Te]CCCNC(=O)c1ccccc1 [compound 2] | 1.45 ± 0.49 |
